In patent US20130171125A1, “Methods for the Regulation of Cellular Metabolism Through the Modulation of SIRT3 Activity” (National Institutes of Health (NIH), U.S. Dept. of Health …, priority 2010, published 2013):

Columns and labels:
HIF1α = HIF1α protein level (immunoblot) in SIRT3 WT and KO MEFs; format: cell-based, mouse; conditions: 1 mM DMOG
Protocol: Significance was assessed by one-way ANOVA. […] Error bars, ±SD. […] Error bars (except for growth curves), ±SEM. (*) p<0.05; (**) p<0.01.
(§1) A series of experiments were performed comparing the effects of hypoxia and DMOG treatment on SIRT3 WT and KO MEFs.

HIF1α target genes = assay: Expression of HIF1α target genes (qRT-PCR) in SIRT3 WT and KO MEFs; format: cell-based, mouse; conditions: DMOG treatment
Protocol: (B) Fold induction of HIF1αtarget genes in response to hypoxia (n=6) measured by qRT-PCR. The ratio of hypoxic to normoxic gene expression is shown. (C) Fold induction of Glut1 and Hk2 in response to DMOG treatment was measured by qRT-PCR and the ratio of untreated to DMOG-treated gene expression is shown (n=6). […] Significance was assessed by one-way ANOVA. […] Error bars, ±SD.
as §1

SIRT3 KO MEFs = assay: Growth rates of SIRT3 WT and KO MEFs cultured with NAC; format: cell-based, mouse; conditions: media supplemented with 10 mM NAC
Protocol: (A) Nuclear extracts from shNS and shSIRT3 HEK293T cells treated with or without 10 μM MG-132 for 1 hour or 1 mM DMOG for 4 hours as indicated were immunoblotted with antibodies specific to hydroxylated HIF1α (HIF—OH) or total HIF1α. (B) Fold induction of HIF1αtarget genes in response to hypoxia (n=6) measured by qRT-PCR. The ratio of hypoxic to normoxic gene expression is shown. (C) Fold induction of Glut1 and Hk2 in response to DMOG treatment was measured by qRT-PCR and the ratio of untreated to DMOG-treated gene expression is shown (n=6). (D) The increase in ROS production with hypoxia was calculated as the fold change in ROS in hypoxic cells relative to normoxic controls. […] Significance was assessed by one-way ANOVA. […] Error bars, ±SD. Protein carbonyls (I) and lipid peroxidation (J) were measured in brown adipose tissue (BAT) of SIRT3 WT and KO mice (n=7). […] Error bars (except for growth curves), ±SEM. […]
To confirm that the metabolite patterns reflected an increase in glycolysis, lactate produced and secreted from SIRT3 WT and KO MEFs (n=5) was measured and normalized to cell number. […] To test whether this apparent increase in aerobic glycolysis supported an increase in biomass and proliferation, growth rates of the MEFs were measured by seeding SIRT3 WT and KO MEFs in six-well plates at a density of 5,000 cells/well and counting the number of cells in triplicate every 24 hours. […]

SIRT3 WT and KO MEFs = assay: Glucose uptake and lactate secretion in MEFs with oxidation inhibitors; format: cell-based, mouse; conditions: WT cells; 100 nM rotenone or 50 μg/ml etomoxir, 24 hours
Description: (A) Schematic illustrating the metabolites that are increased or decreased in SIRT3 KO MEFs compared to SIRT3 WT MEFs (n=4), p<0.1. Metabolites in parentheses were not measured. PPP, pentose phosphate pathway. The nonoxidative and oxidative arms of the PPP are shown. Levels of glycolytic intermediates (B), TCA cycle intermediates (C), glucose (D), glucose-1-phosphate (E) and ribose-5-phosphate (F). Growth curves of SIRT3 WT and KO MEFs (n=3) cultured in media containing glucose (G) or galactose (H). Error bars, ±SD. (1-N) Glucose uptake and lactate production in SIRT3 WT and KO MEFs (n=6). (I) Relative glucose uptake and (J) lactate production in SIRT3 WT and KO MEFs. (K) Relative glucose uptake and (L) relative lactate production in SIRT3 WT and KO MEFs incubated with or without 100 nM rotenone. (M) Glucose uptake and (N) lactate production in SIRT3 WT and KO MEFs cultured in the presence or absence of 50 μg/ml etomoxir. Cells were treated with drugs for 24 hours before measuring glucose uptake and lactate. All error bars (except growth curves), ±SEM. […]
Metabolites were isolated by methanol extraction from cultured cells and analyzed by liquid chromatography-mass spectrometry (LC-MS). Lactate production was measured using the Lactate Reagent Kit (Trinity Biosciences). […] SDH activity was determined by a colorometric spectrophotometric assay measuring the reduction of 2,6-dichlorophenolindophenol.

CAMA1 cells = assay: Glucose uptake and lactate production in CAMA1 control or SIRT3 overexpressing cells with rotenone or etomoxir; format: cell-based, human; conditions: 100 nM rotenone or 50 μg/ml etomoxir
Protocol: (A) Lactate production and (B) glucose consumption of MCF7, T47D and CAMA1 cells stably expressing empty vector or SIRT3 and cultured under hypoxia expressed as a ratio of empty-vector normoxic controls. (C) Relative glucose uptake and (D) relative lactate production in CAMA1 control or SIRT3 overexpressing cells incubated with or without 100 nM rotenone. (E) Glucose uptake and (F) lactate production in CAMA1 cell lines cultured in the presence or absence of 50 μg/ml etomoxir. (G) Immunoblots of CAMA1 cells stably expressing control vector or SIRT3-FLAG cultured at 1% oxygen for the indicated. (H) qRT-PCR of HIF1α target genes in CAMA1 cells cultured at 1% oxygen. (I) Induction of HIF1α target genes in response to hypoxia measured by qRT-PCR in CAMA1 cells. The ratio of normoxic to hypoxic gene expression in each cell line is shown. (J) Induction of HIF1α target genes in response to 1 mM DMOG treatment measured by qRT-PCR in CAMA1 cells. The ratio of untreated to DMOG-treated gene expression in each cell line is shown. Growth curves of CAMA1 cells (n=3) cultured in glucose (K) or galactose (L). Error bars, ±SD. (M) Schematic of the regulation of HIF1α and the Warburg effect by SIRT3. β-2-microglobulin was used as an endogenous control for qRT-PCR. Error bars (except for growth curves), ±SEM. (*) p<0.05; (**) p<0.01.
To examine the contribution of complex I activity or fatty acid oxidation on these phenotypes, glucose uptake and lactate production was measured in the presence of rotenone and etomoxir.
Metabolites were isolated by methanol extraction from cultured cells and analyzed by liquid chromatography-mass spectrometry (LC-MS). Lactate production was measured using the Lactate Reagent Kit (Trinity Biosciences). For immunoblotting, cell lysates and immunoprecipitations were probed with the following antibodies: Total OXPHOS antibody cocktail, complex II antibody cocktail, and OSCP (Mitosciences); Flag (Sigma); acetyl-lysine, LSD1 and hydroxylated HIF1α (Cell Signaling); SUCLA2 and GFP (Santa Cruz); GDH (USBiological); mouse HIF1α (Novus Biologicals) and human HIF 1 (BD Biosciences). The antibody recognizing murine SIRT3 was raised in rabbits against the (C) […] epitope conjugated to KLH at the added cysteine (Covance Research Products). SDH activity was determined by a colorometric spectrophotometric assay measuring the reduction of 2,6-dichlorophenolindophenol.

SDHA = assay: In vitro deacetylation of SDHA in complex II immunoprecipitates; format: biochemical, mouse; conditions: with NAD, 2 hours at 37° C.

COC(=O)CNC(=O)C(=O)OC [DMOG, dimethyloxaloylglycine]
HIF1α stabilization (HIF1α): stabilize HIF1α | expression of HIF1α target genes (Glut1, Hk2) (HIF1α target genes): induce expression of HIF1α target genes

CC(=O)N[C@@H](CS)C(=O)O [NAC, N-acetylcysteine]
proliferation (growth rate) (SIRT3 KO MEFs): rescued the increased proliferation of SIRT3 KO MEFs

CCOC(=O)[C@@]1(CCCCCCOc2ccc(Cl)cc2)CO1 [etomoxir]
glycolysis (glucose uptake and lactate production) (SIRT3 WT and KO MEFs): increased | glucose uptake (CAMA1 cells): increased | lactate production (CAMA1 cells): increased

C=C(C)[C@H]1Cc2c(ccc3c2O[C@@H]2COc4cc(OC)c(OC)cc4[C@@H]2C3=O)O1 [rotenone]
glycolysis (glucose uptake and lactate production) (SIRT3 WT and KO MEFs): increased | glucose uptake (CAMA1 cells): increased | lactate production (CAMA1 cells): increased

B1: SIRT3-H248Y-His: catalytically inactive SIRT3 (protein, UniProt Q9NTG7 1-399, looked up, variant H248Y)
chain: MAFWGWRAAAALRLWGRVVERVEAGGGVGPFQACGCRLVLGGRDDVSAGLRGSHGARGEPLDPARPLQRPPRPEVPRAFRRQPRAAAPSFFFSSIKGGRRSISFSVGASSVVGSGGSSDKGKLSLQDVAELIRARACQRVVVMVGAGISTPSGIPDFRSPGSGLYSNLQQYDLPYPEAIFELPFFFHNPKPFFTLAKELYPGNYKPNVTHYFLRLLHDKGLLLRLYTQNIDGLERVSGIPASKLVEAYGTFASATCTVCQRPFPGEDIRADVMADRVPRCPVCTGVVKPDIVFFGEPLPQRFLLHVVDFPMADLLLILGTSLEVEPFASLTEAVRSSVPRLLINRDLVGPLAWHPRSRDVAQLGDVVHGVESLVELLGWTEEMRDLVQRETGKLDGPDK
modifications: His tag
deacetylation of SDHA (SDHA): not
